Values joined by “and” are separate entries in the source; they are usually repeats but may differ in a detail not shown here. Equal entries are not always repeated.
Settings: for vapor or sublimation pressure: Closed cell (Static) method; for mass density: Fluid (supercritical or subcritical phases), Bellows volumetry

CC(C)C [2-methylpropane]
Settings	Critical pressure [kPa]	Critical temperature [K]	mass density	vapor or sublimation pressure
310 K, Liquid	–	–	–	489.5 kPa [middle of 6 runs]
405 K, 3464.7 kPa	–	–	185 kg/m3	–
405 K, 3467.3 kPa	–	–	199.9 kg/m3 and 200 kg/m3	–
405 K, 3468 kPa	–	–	200 kg/m3	–
405 K, 3468.4 kPa	–	–	200 kg/m3	–
405 K, 3469.9 kPa	–	–	264.9 kg/m3	–
405 K, Liquid	–	–	–	3468.8 kPa [middle of 6 runs]
406 K, 3523.7 kPa	–	–	184.9 kg/m3	–
406 K, 3525.7 kPa	–	–	199.9 kg/m3	–
406 K, 3528.1 kPa	–	–	264.9 kg/m3	–
406 K, Liquid	–	–	–	3527 kPa [middle of 6 runs]
407 K, 3582.1 kPa	–	–	185.4 kg/m3	–
407 K, 3585 kPa	–	–	200.3 kg/m3	–
407 K, Liquid	–	–	–	3585.5 kPa [middle of 7 runs]
407.5 K, 3613.8 kPa	–	–	185 kg/m3	–
407.5 K, 3617.5 kPa	–	–	199.9 kg/m3	–
407.5 K, 3617.7 kPa	–	–	200.4 kg/m3	–
407.5 K, 3620.6 kPa	–	–	265 kg/m3	–
407.5 K, Liquid	–	–	–	3619 kPa [middle of 6 runs]
407.89 K, 3632.3 kPa	–	–	184.9 kg/m3	–
407.89 K, 3637.6 kPa	–	–	200.1 kg/m3	–
407.89 K, 3640.5 kPa	–	–	240 kg/m3	–
407.89 K, 3640.6 kPa	–	–	250 kg/m3	–
407.89 K, 3640.8 kPa	–	–	250.2 kg/m3	–
407.89 K, 3640.9 kPa	–	–	241.4 kg/m3	–
407.89 K, 3641.3 kPa	–	–	250.5 kg/m3	–
407.89 K, 3644.5 kPa	–	–	263.7 kg/m3	–
407.89 K, 3644.6 kPa	–	–	264.9 kg/m3	–
408 K, 3635.8 kPa	–	–	184.1 kg/m3	–
408 K, 3638.1 kPa	–	–	184.9 kg/m3	–
408 K, 3643.7 kPa	–	–	200 kg/m3	–
408 K, 3644.2 kPa	–	–	200.4 kg/m3	–
408 K, 3645.6 kPa	–	–	220 kg/m3	–
408 K, 3646.4 kPa	–	–	227.5 kg/m3	–
408 K, 3646.6 kPa	–	–	240 kg/m3	–
408 K, 3646.8 kPa	–	–	220.1 kg/m3	–
408 K, 3647.4 kPa	–	–	249.9 kg/m3	–
408 K, 3652.4 kPa	–	–	265.5 kg/m3	–
409 K, 3692.1 kPa	–	–	184.7 kg/m3	–
409 K, 3692.8 kPa	–	–	184.9 kg/m3	–
409 K, 3702.2 kPa	–	–	200 kg/m3	–
409 K, 3702.8 kPa	–	–	200.4 kg/m3	–
409 K, 3708.3 kPa	–	–	219.8 kg/m3	–
409 K, 3708.5 kPa	–	–	219.9 kg/m3	–
409 K, 3708.9 kPa	–	–	220.4 kg/m3	–
409 K, 3709.7 kPa	–	–	224.2 kg/m3	–
409 K, 3710.5 kPa	–	–	227.4 kg/m3	–
409 K, 3713.6 kPa	–	–	239.9 kg/m3	–
409 K, 3717.7 kPa	–	–	250 kg/m3	–
409 K, 3718.4 kPa	–	–	250.4 kg/m3	–
409 K, 3729 kPa	–	–	265 kg/m3	–
410 K, 3745.3 kPa	–	–	185 kg/m3	–
410 K, 3757.5 kPa	–	–	200 kg/m3	–
410 K, 3758.2 kPa	–	–	200 kg/m3	–
410 K, 3764.3 kPa	–	–	210 kg/m3	–
410 K, 3769.4 kPa	–	–	220 kg/m3	–
410 K, 3772.2 kPa	–	–	227.4 kg/m3	–
410 K, 3772.5 kPa	–	–	228.1 kg/m3	–
410 K, 3779.4 kPa	–	–	240 kg/m3	–
410 K, 3785.9 kPa	–	–	250 kg/m3	–
410 K, 3786.3 kPa	–	–	250.4 kg/m3	–
410 K, 3802.3 kPa	–	–	265 kg/m3	–
410 K, 3802.8 kPa	–	–	265.2 kg/m3	–
Liquid, Direct measurement	3639	–	–	–
Liquid, Visual observation in an unstirred cell	–	407.88	–	–
